These are literature values, as cited in patent US9044383B1, “Compounds and methods for drug delivery via a human nail” (priority 2013, dated 2015).

One data set relates to obesity in subjects. Conditions: applied topically on the skin.
For another data set, the system named is overweight and obese men. Conditions: taken orally.

Consider `C=C[C@@]1(C)CC(=O)[C@]2(O)[C@@]3(C)[C@@H](O)CCC(C)(C)[C@@H]3[C@H](O)[C@H](OC(C)=O)[C@@]2(C)O1` [forskolin, 7-beta-acetoxy-8,13-epoxy-1-alpha, 6-beta, 9-alpha-trihydroxylabd-14-en-1′-one], for which, under “organic solvents such as ethanol, chloroform, and dimethyl surfoxide”, the “solubility in organic solvents” value is recorded as “soluble”. Under “water with 2% ethanol, first dissolved in ethanol or dimethyl surfoxide at 5 mg/mL, then diluted with water”, the “solubility in water (with 2% ethanol)” value is recorded as “up to 0.2 mm”. Besides, the decreasing obesity entry in the data set with obesity in subjects was “favorable results”. In addition, the “effectiveness as a weight loss aid” value in the data set with overweight and obese men was “favorable results”.
